Results: the NIST ThermoML archive (doi:10.1016/j.jct.2011.08.017)
Values joined by “and” are separate entries in the source; they are usually repeats but may differ in a detail not shown here. Identical values can stand only once.

Key:
[1] = for Normal melting temperature: DTA
[2] = Molar enthalpy of transition or fusion; details: Crystal; DSC

Cn1cnc(Cl)c1Cl [4,5-dichloro-1-methyl-1H-imidazole]
[1]
Details | vapor or sublimation pressure [kPa]
288.03 K, Crystal, Closed cell (Static) method | 0.00048
290.06 K, Crystal, Closed cell (Static) method | 0.0006
292.08 K, Crystal, Closed cell (Static) method | 0.00076
294.06 K, Crystal, Closed cell (Static) method | 0.00096
296.06 K, Crystal, Closed cell (Static) method | 0.0012
298.04 K, Crystal, Closed cell (Static) method | 0.00149
300.05 K, Crystal, Closed cell (Static) method | 0.00185
302.01 K, Crystal, Closed cell (Static) method | 0.00231
303.99 K, Crystal, Closed cell (Static) method | 0.00286
306.02 K, Crystal, Closed cell (Static) method | 0.00352
307.96 K, Crystal, Closed cell (Static) method | 0.0043
309.97 K, Crystal, Closed cell (Static) method | 0.00527
311.98 K, Crystal, Closed cell (Static) method | 0.00646
313.95 K, Crystal, Closed cell (Static) method | 0.00782
315.93 K, Crystal, Closed cell (Static) method | 0.00957
317.91 K, Crystal, Closed cell (Static) method | 0.01164
319.99 K, Crystal, Closed cell (Static) method | 0.01413
322 K, Crystal, Closed cell (Static) method | 0.01693
323.97 K, Crystal, Closed cell (Static) method | 0.02049
325.97 K, Crystal, Closed cell (Static) method | 0.02463
329.93 K, Metastable liquid, Closed cell (Static) method | 0.03434
331.93 K, Closed cell (Static) method, Liquid | 0.03936
333.9 K, Closed cell (Static) method, Liquid | 0.04506
335.89 K, Closed cell (Static) method, Liquid | 0.05151
337.88 K, Closed cell (Static) method, Liquid | 0.05882
339.87 K, Closed cell (Static) method, Liquid | 0.06701
341.86 K, Closed cell (Static) method, Liquid | 0.07636
343.84 K, Closed cell (Static) method, Liquid | 0.08631
345.82 K, Closed cell (Static) method, Liquid | 0.09809
347.8 K, Closed cell (Static) method, Liquid | 0.1106
349.78 K, Closed cell (Static) method, Liquid | 0.1248

Details | Normal melting temperature [°C]
[1], Crystal | 57.0

Details | Molar enthalpy of transition or fusion [kcal/mol]
[2] | 4.06

N#Cc1nc[nH]c1C#N [4,5-dicyanoimidazole]
[1], Crystal, Calculated from knudsen effusion weight loss
Details | vapor or sublimation pressure
383.16 K | 0.000153 kPa and 0.00015 kPa
385.16 K | 0.000182 kPa and 0.000184 kPa and 0.000183 kPa
387.12 K | 0.000223 kPa and 0.000222 kPa
389.16 K | 0.000267 kPa and 0.000264 kPa
391.16 K | 0.000325 kPa
393.12 K | 0.000386 kPa and 0.000383 kPa and 0.000389 kPa
395.16 K | 0.000462 kPa and 0.000464 kPa
397.16 K | 0.000556 kPa
399.14 K | 0.000668 kPa and 0.000664 kPa and 0.000666 kPa
401.16 K | 0.000791 kPa and 0.000782 kPa and 0.000796 kPa
403.15 K | 0.000954 kPa and 0.000931 kPa and 0.000932 kPa

Details | Normal melting temperature [°C]
[1], Crystal | 176

Details | Molar enthalpy of transition or fusion [kcal/mol]
[2] | 5.4

c1c[nH]cn1 [1H-imidazole]
[1]
Details | vapor or sublimation pressure [kPa]
303.99 K, Crystal, Closed cell (Static) method | 0.00058
306.97 K, Crystal, Closed cell (Static) method | 0.00079
309.99 K, Crystal, Closed cell (Static) method | 0.00108
312.98 K, Crystal, Closed cell (Static) method | 0.00145
315.94 K, Crystal, Closed cell (Static) method | 0.00195
318.92 K, Crystal, Closed cell (Static) method | 0.00263
321.97 K, Crystal, Closed cell (Static) method | 0.0035
324.96 K, Crystal, Closed cell (Static) method | 0.00469
327.95 K, Crystal, Closed cell (Static) method | 0.00621
330.92 K, Crystal, Closed cell (Static) method | 0.00819
333.9 K, Crystal, Closed cell (Static) method | 0.01063
333.9 K, Metastable liquid, Closed cell (Static) method | 0.01485
336.88 K, Crystal, Closed cell (Static) method | 0.01377
336.89 K, Metastable liquid, Closed cell (Static) method | 0.01859
339.86 K, Crystal, Closed cell (Static) method | 0.01782
339.86 K, Metastable liquid, Closed cell (Static) method | 0.02311
342.84 K, Crystal, Closed cell (Static) method | 0.02289
342.84 K, Metastable liquid, Closed cell (Static) method | 0.02848
345.81 K, Metastable liquid, Closed cell (Static) method | 0.03509
345.83 K, Crystal, Closed cell (Static) method | 0.02923
348.8 K, Crystal, Closed cell (Static) method | 0.03701
348.8 K, Metastable liquid, Closed cell (Static) method | 0.04297
351.75 K, Metastable liquid, Closed cell (Static) method | 0.05222
351.77 K, Crystal, Closed cell (Static) method | 0.04693
354.75 K, Crystal, Closed cell (Static) method | 0.0592
354.76 K, Metastable liquid, Closed cell (Static) method | 0.06354
357.72 K, Crystal, Closed cell (Static) method | 0.07394
357.72 K, Metastable liquid, Closed cell (Static) method | 0.07682
360.69 K, Metastable liquid, Closed cell (Static) method | 0.09288
363.67 K, Closed cell (Static) method, Liquid | 0.1112
366.66 K, Closed cell (Static) method, Liquid | 0.1336
369.63 K, Closed cell (Static) method, Liquid | 0.1596
372.6 K, Closed cell (Static) method, Liquid | 0.1912
375.56 K, Closed cell (Static) method, Liquid | 0.2249
378.51 K, Closed cell (Static) method, Liquid | 0.2655
381.51 K, Closed cell (Static) method, Liquid | 0.3134
384.48 K, Closed cell (Static) method, Liquid | 0.3688

Details | Normal melting temperature [°C]
[1], Crystal | 86.2

Details | Molar enthalpy of transition or fusion [kcal/mol]
[2] | 3.13

Cn1cnc(C#N)c1C#N [1-methyl-1H-imidazole-4,5-dicarbonitrile]
[1]
Details | vapor or sublimation pressure [kPa]
337.86 K, Crystal, Closed cell (Static) method | 0.00034
339.38 K, Crystal, Closed cell (Static) method | 0.00039
340.86 K, Crystal, Closed cell (Static) method | 0.00046
342.35 K, Crystal, Closed cell (Static) method | 0.00053
343.84 K, Crystal, Closed cell (Static) method | 0.00061
345.33 K, Crystal, Closed cell (Static) method | 0.0007
346.81 K, Crystal, Closed cell (Static) method | 0.00082
348.31 K, Crystal, Closed cell (Static) method | 0.00094
349.78 K, Crystal, Closed cell (Static) method | 0.00107
351.29 K, Crystal, Closed cell (Static) method | 0.00124
352.76 K, Crystal, Closed cell (Static) method | 0.00142
354.26 K, Crystal, Closed cell (Static) method | 0.00163
355.73 K, Crystal, Closed cell (Static) method | 0.00186
355.76 K, Metastable liquid, Closed cell (Static) method | 0.00198
357.23 K, Crystal, Closed cell (Static) method | 0.00212
357.23 K, Metastable liquid, Closed cell (Static) method | 0.00221
358.72 K, Crystal, Closed cell (Static) method | 0.00242
358.77 K, Metastable liquid, Closed cell (Static) method | 0.00249
360.71 K, Metastable liquid, Closed cell (Static) method | 0.00284
362.59 K, Closed cell (Static) method, Liquid | 0.0033
364.68 K, Closed cell (Static) method, Liquid | 0.00381
366.64 K, Closed cell (Static) method, Liquid | 0.0044
368.64 K, Closed cell (Static) method, Liquid | 0.00506
370.6 K, Closed cell (Static) method, Liquid | 0.00584
372.61 K, Closed cell (Static) method, Liquid | 0.0067
374.56 K, Closed cell (Static) method, Liquid | 0.00765
376.58 K, Closed cell (Static) method, Liquid | 0.00875
378.53 K, Closed cell (Static) method, Liquid | 0.01
380.52 K, Closed cell (Static) method, Liquid | 0.01138
382.49 K, Closed cell (Static) method, Liquid | 0.01298
384.5 K, Closed cell (Static) method, Liquid | 0.01474
386.44 K, Closed cell (Static) method, Liquid | 0.01668
388.45 K, Closed cell (Static) method, Liquid | 0.01889
390.43 K, Closed cell (Static) method, Liquid | 0.02143
392.4 K, Closed cell (Static) method, Liquid | 0.0241
394.36 K, Closed cell (Static) method, Liquid | 0.02715
396.35 K, Closed cell (Static) method, Liquid | 0.0304
398.31 K, Closed cell (Static) method, Liquid | 0.03419
400.31 K, Closed cell (Static) method, Liquid | 0.03815
402.27 K, Closed cell (Static) method, Liquid | 0.04273
404.27 K, Closed cell (Static) method, Liquid | 0.04766
406.23 K, Closed cell (Static) method, Liquid | 0.05325

Details | Normal melting temperature [°C]
[1], Crystal | 87.1

Details | Molar enthalpy of transition or fusion [kcal/mol]
[2] | 3.54

Clc1nc[nH]c1Cl [4,5-dichloroimidazole]
[1], Crystal, Closed cell (Static) method
Details | vapor or sublimation pressure
337.91 K | 0.00048 kPa
339.87 K | 0.00059 kPa
341.87 K | 0.00072 kPa
341.88 K | 0.00071 kPa
343.83 K | 0.00086 kPa
345.84 K | 0.00104 kPa
345.85 K | 0.00104 kPa
347.81 K | 0.00125 kPa
349.81 K | 0.00148 kPa and 0.00151 kPa
351.78 K | 0.0018 kPa
355.75 K | 0.00258 kPa
357.73 K | 0.00306 kPa
359.72 K | 0.00366 kPa
361.71 K | 0.00434 kPa
363.69 K | 0.00513 kPa
365.67 K | 0.00607 kPa
367.66 K | 0.00722 kPa
369.64 K | 0.00841 kPa
371.62 K | 0.00998 kPa
373.6 K | 0.01172 kPa
375.6 K | 0.01368 kPa
377.56 K | 0.01597 kPa
379.54 K | 0.0184 kPa
381.52 K | 0.02175 kPa
383.45 K | 0.02487 kPa
385.49 K | 0.02923 kPa
387.38 K | 0.03334 kPa
389.45 K | 0.03896 kPa
391.33 K | 0.04433 kPa
393.4 K | 0.05168 kPa
395.37 K | 0.0589 kPa

Details | Normal melting temperature [°C]
[1], Crystal | 183.6

Details | Molar enthalpy of transition or fusion [kcal/mol]
[2] | 4.21

Cn1ccnc1 [1-methylimidazole]
[1]
Details | vapor or sublimation pressure [kPa]
255.52 K, Crystal, Closed cell (Static) method | 0.00122
256.47 K, Metastable liquid, Closed cell (Static) method | 0.00184
256.5 K, Crystal, Closed cell (Static) method | 0.00139
257.48 K, Crystal, Closed cell (Static) method | 0.00157
257.48 K, Metastable liquid, Closed cell (Static) method | 0.00204
258.55 K, Metastable liquid, Closed cell (Static) method | 0.00226
258.57 K, Crystal, Closed cell (Static) method | 0.00177
259.5 K, Metastable liquid, Closed cell (Static) method | 0.00249
259.53 K, Crystal, Closed cell (Static) method | 0.00201
260.46 K, Metastable liquid, Closed cell (Static) method | 0.00273
260.48 K, Crystal, Closed cell (Static) method | 0.00225
261.42 K, Metastable liquid, Closed cell (Static) method | 0.00301
261.45 K, Crystal, Closed cell (Static) method | 0.00255
262.38 K, Metastable liquid, Closed cell (Static) method | 0.0033
262.41 K, Crystal, Closed cell (Static) method | 0.00277
263.36 K, Metastable liquid, Closed cell (Static) method | 0.00362
263.37 K, Crystal, Closed cell (Static) method | 0.00317
264.36 K, Crystal, Closed cell (Static) method | 0.00356
265.16 K, Metastable liquid, Closed cell (Static) method | 0.00425
265.35 K, Crystal, Closed cell (Static) method | 0.004
267.28 K, Metastable liquid, Closed cell (Static) method | 0.00515
269.27 K, Metastable liquid, Closed cell (Static) method | 0.00618
271.23 K, Closed cell (Static) method, Liquid | 0.00739
273.22 K, Closed cell (Static) method, Liquid | 0.00866
275.16 K, Closed cell (Static) method, Liquid | 0.01042
277.18 K, Closed cell (Static) method, Liquid | 0.01215
281.14 K, Closed cell (Static) method, Liquid | 0.01675
285.09 K, Closed cell (Static) method, Liquid | 0.02306
287.07 K, Closed cell (Static) method, Liquid | 0.02725
289.06 K, Closed cell (Static) method, Liquid | 0.03146
291.04 K, Closed cell (Static) method, Liquid | 0.03655
293.04 K, Closed cell (Static) method, Liquid | 0.04224
295.03 K, Closed cell (Static) method, Liquid | 0.049
297.03 K, Closed cell (Static) method, Liquid | 0.05608
298.98 K, Closed cell (Static) method, Liquid | 0.06498
300.98 K, Closed cell (Static) method, Liquid | 0.07451
302.96 K, Closed cell (Static) method, Liquid | 0.0852
304.98 K, Closed cell (Static) method, Liquid | 0.09635

Details | Normal melting temperature [°C]
[1], Crystal | -4.5

Details | Molar enthalpy of transition or fusion [kcal/mol]
[2] | 2.94
